Reference: ChEMBL document CHEMBL1143211, “Inhibitors of proteases and amide hydrolases that employ an alpha-ketoheterocycle as a key enabling functionality” (Bioorg Med Chem, 2008)
pIC50, pKi: −log10 of the molar value. Values belong to the compound of their own block, whether it stands above or below them.

Experiments:
Prolyl endopeptidase = Prolyl endopeptidase (Sus scrofa, UniProt P23687)
[1] = Inhibition of human beta-tryptase
Cathepsin K = molecular target: T1, Cathepsin K (Homo sapiens, UniProt P43235); experiment: Inhibition of human recombinant cathepsin K
T1 sequence (P43235 whole entry): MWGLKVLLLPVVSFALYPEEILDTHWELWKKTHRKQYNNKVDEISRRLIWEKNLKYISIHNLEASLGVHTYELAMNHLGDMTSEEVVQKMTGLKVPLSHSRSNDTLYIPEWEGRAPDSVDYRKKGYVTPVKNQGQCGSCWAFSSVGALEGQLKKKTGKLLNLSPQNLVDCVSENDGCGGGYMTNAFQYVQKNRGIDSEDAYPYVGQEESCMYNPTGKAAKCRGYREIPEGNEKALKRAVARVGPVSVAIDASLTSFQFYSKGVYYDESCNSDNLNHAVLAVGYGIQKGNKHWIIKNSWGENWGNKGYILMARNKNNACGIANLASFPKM

Cathepsin B = Cathepsin B (Homo sapiens, UniProt P07858); experiment: Inhibition of human liver cathepsin B
Procathepsin L = Procathepsin L (Homo sapiens, UniProt P07711); experiment: Inhibition of human recombinant cathepsin L
Sequence of Procathepsin L (P07711 whole entry): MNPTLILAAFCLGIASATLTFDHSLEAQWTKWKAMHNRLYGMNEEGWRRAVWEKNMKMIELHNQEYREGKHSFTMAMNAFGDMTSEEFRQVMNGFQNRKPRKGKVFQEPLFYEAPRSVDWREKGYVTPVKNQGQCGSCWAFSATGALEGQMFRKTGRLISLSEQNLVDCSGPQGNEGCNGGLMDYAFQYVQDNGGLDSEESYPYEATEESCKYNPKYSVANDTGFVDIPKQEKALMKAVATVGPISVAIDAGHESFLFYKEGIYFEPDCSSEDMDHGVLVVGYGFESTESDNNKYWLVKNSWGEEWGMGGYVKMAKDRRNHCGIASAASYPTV

Cathepsin S = Cathepsin S (Homo sapiens, UniProt P25774); experiment: Inhibition of human recombinant cathepsin S
Sequence of Cathepsin S (P25774 whole entry): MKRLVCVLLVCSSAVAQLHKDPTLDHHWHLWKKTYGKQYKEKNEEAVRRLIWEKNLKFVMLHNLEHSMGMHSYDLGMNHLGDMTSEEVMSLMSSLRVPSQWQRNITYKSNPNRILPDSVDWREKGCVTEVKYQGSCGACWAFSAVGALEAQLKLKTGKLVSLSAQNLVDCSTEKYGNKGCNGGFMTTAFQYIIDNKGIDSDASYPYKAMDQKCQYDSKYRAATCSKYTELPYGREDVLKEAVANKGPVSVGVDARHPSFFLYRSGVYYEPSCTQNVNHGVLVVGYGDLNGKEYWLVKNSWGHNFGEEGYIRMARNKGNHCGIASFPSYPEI

[2] = Inhibition of HDAC
Prothrombin = Prothrombin (Homo sapiens, UniProt P00734); experiment: Inhibition of human alpha-thrombin
Trypsin = Trypsin (Homo sapiens, UniProt P07477+P07478+P35030); experiment: Inhibition of human trypsin; format: protein assay
[3] = Selectivity for rat FAAH over triacylglycerol hydrolase
[4] = molecular target: T2, Fatty-acid amide hydrolase 1 (Rattus norvegicus, UniProt P97612)
T2 sequence (P97612 whole entry): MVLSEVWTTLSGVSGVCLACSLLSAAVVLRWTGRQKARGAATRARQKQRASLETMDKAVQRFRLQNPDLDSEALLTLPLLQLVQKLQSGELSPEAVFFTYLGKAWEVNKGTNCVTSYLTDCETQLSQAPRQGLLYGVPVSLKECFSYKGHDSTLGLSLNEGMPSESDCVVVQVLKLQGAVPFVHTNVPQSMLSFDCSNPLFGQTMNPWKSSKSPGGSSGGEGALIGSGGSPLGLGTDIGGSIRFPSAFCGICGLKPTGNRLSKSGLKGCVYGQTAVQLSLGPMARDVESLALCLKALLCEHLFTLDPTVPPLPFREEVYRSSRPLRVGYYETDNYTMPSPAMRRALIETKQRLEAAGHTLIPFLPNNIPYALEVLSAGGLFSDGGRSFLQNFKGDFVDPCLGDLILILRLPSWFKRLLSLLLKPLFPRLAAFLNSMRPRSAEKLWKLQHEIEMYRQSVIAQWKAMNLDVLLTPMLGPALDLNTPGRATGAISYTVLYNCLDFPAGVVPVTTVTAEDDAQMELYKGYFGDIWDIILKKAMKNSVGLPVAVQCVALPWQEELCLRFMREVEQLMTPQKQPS

[5] = Inhibition of bovine trypsin; parameters: species or system Bos taurus
Coagulation factor X = Coagulation factor X (Homo sapiens, UniProt P00742); experiment: Inhibition of human factor 10a
Sequence of Coagulation factor X (P00742 41-179 limits assumed): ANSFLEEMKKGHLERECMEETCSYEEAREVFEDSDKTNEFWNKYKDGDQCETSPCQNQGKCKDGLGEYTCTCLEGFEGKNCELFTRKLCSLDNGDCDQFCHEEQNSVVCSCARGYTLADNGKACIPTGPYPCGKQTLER
Sequence of Coagulation factor X (P00742 235-488 limits assumed): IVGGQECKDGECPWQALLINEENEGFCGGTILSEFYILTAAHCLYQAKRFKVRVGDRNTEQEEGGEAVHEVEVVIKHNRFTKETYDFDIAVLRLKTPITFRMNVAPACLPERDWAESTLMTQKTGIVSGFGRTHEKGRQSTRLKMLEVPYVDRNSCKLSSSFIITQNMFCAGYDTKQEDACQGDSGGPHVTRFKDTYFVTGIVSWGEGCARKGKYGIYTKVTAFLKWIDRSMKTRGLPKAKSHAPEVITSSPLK

Sequence of Prolyl endopeptidase (P23687 whole entry): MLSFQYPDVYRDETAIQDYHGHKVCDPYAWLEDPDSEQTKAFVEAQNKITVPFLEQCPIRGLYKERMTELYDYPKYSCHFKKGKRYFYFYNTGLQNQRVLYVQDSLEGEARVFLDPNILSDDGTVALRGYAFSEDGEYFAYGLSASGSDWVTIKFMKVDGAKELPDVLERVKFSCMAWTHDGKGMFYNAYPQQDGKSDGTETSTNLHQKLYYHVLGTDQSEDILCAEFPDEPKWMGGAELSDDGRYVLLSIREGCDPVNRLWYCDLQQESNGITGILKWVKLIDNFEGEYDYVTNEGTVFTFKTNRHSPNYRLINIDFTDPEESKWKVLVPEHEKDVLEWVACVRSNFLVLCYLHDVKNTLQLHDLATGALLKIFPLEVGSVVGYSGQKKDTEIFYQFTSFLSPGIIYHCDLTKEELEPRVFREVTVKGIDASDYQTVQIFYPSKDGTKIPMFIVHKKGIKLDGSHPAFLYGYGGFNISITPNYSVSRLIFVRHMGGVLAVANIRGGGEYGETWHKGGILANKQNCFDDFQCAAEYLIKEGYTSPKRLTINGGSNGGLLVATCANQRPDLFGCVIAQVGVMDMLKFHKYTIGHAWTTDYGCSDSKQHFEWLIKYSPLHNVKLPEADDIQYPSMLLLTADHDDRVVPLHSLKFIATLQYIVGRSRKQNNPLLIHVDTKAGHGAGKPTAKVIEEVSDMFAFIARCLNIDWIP

pIC50 (Prolyl endopeptidase): 5.96
Compound: O=C(c1cncs1)[C@@H]1CCCN1C(=O)[C@@H]1CCCN1CCCc1ccccc1

pKi [1]: 4.85
Compound: CC(=O)N1CCC[C@@H]1C(=O)N[C@@H](CCCN=C(N)N)C(=O)c1nc2ccccc2s1

pKi (Cathepsin K): 7.40
pKi (Cathepsin B): 7.05
pKi (Procathepsin L): 6.66
pKi (Cathepsin S): 7.40
Compound: CC(C)C[C@H](NC(=O)C1CCNCC1)C(=O)N[C@@H](CCc1ccccc1)C(=O)c1nc2cc(S(N)(=O)=O)ccc2o1

pIC50 [2]: < 4.30
Compound: O=C(CCCCCCOc1ccc(-c2ccccc2)cc1)c1nc2ccccc2o1

pIC50 (Prolyl endopeptidase): 8.42
Compound: O=C(C1=NCCS1)[C@@H]1CCCN1C(=O)[C@@H]1CCCN1CCCc1ccccc1

pIC50 [2]: 6.21
Compound: O=C(CCCCCCOc1cccc(-c2ccccc2)c1)c1ncco1

pIC50 (Prolyl endopeptidase): 8.25
Compound: O=C(c1nc2ccccc2s1)[C@@H]1CCCN1C(=O)[C@@H]1CCCN1OCc1ccccc1

pIC50 [2]: 6.51
Compound: O=C(CCCCCC(=O)c1ncco1)Nc1cccc(-c2ccccc2)c1

pIC50 [2]: 6.96
Compound: CNC(=O)C(=O)CCCCCCOc1ccc(-c2ccccc2)cc1

pIC50 [2]: 6.00
Compound: O=C(CCCCCCOc1ccc(-c2ccccc2)cc1)c1ncco1

pIC50 [2]: 6.00
Compound: O=C(CCCCCCOc1ccc(-c2ccccc2)cc1)C1=NCCO1

pKi (Cathepsin S): > 7.00
Compound: O=C(N[C@@H](CCc1ccccc1)C(=O)c1ncco1)[C@@H](CC(=O)N1CCOCC1)CC1CCCCC1

pKi (Prothrombin): 6.30
IC50 (Trypsin): 91000 nM
Compound: N=C(N)N1CCC[C@@H](C[C@H](NC(=O)CN2CC(=O)N(CCCc3ccccc3)CC2=O)C(=O)c2nccs2)C1

pIC50 (Prolyl endopeptidase): 8.16
Compound: O=C(c1ccccn1)[C@@H]1CCCN1C(=O)[C@@H]1CCCN1CCCc1ccccc1

pIC50 (Prolyl endopeptidase): 7.10
Compound: CC(NC(=O)[C@H](CC(=O)N(C)C)NC(=O)[C@@H](NC(=O)CC(C)(C)C)C(C)(C)C)C(=O)c1nc2ccccc2o1 (stereo not given in full)

pKi (Cathepsin K): 5.52
pKi (Cathepsin B): 4.47
pKi (Procathepsin L): 4.55
pKi (Cathepsin S): 5.70
Compound: CCCC[C@H](NC(=O)OCc1ccccc1)C(=O)c1nnc(-c2ccco2)o1

pKi (Cathepsin K): > 9.60
pKi (Cathepsin B): 8.70
pKi (Procathepsin L): 9.00
pKi (Cathepsin S): > 9.60
Compound: CCCC[C@H](NC(=O)C(=O)[C@H](CC(C)C)NC(=O)OCc1ccccc1)C(=O)c1nnc(-c2ccco2)o1

pIC50 [2]: < 4.30
Compound: O=C(CCCCCCOc1ccc(-c2ccccc2)cc1)c1nccs1

pIC50 (Prolyl endopeptidase): 8.40
Compound: O=C(c1nc2ccccc2s1)[C@@H]1CCCN1C(=O)[C@@H]1CCCN1CCCc1ccccc1

Selectivity ratio [3]: 5000
Compound: CCCCCCCC/C=C\CCCCCCCC(=O)c1nnc(-c2ccccn2)o1

pKi [1]: 6.74
Compound: CC(=O)N1C[C@H](O)C[C@H]1C(=O)N[C@@H](CCCNC(=N)N)C(=O)c1nccs1

pIC50 [2]: < 4.30
Compound: Cn1ccnc1C(=O)CCCCCCOc1ccc(-c2ccccc2)cc1

Selectivity ratio [3]: 2000
pKi [4]: 9.22
Compound: Cc1ccnc(-c2cnc(C(=O)CCCCCCc3ccccc3)o2)c1

Compound: Cn1nnnc1C(=O)[C@@H](NC(=O)[C@@H]1CC[C@H]2CN(S(=O)(=O)Cc3ccccc3)CC(=O)N21)[C@H]1CC[C@H](N)CC1
pKi (Prothrombin): 8.30
Ki (Trypsin): 35000 nM

pKi (Cathepsin S): > 7.00
Compound: CCCC(F)(F)C[C@H](NC(=O)N1CCOCC1)C(=O)N[C@@H](CC)C(=O)c1nc(C2CC2)no1

pKi [5]: 6.80
pKi [1]: 6.60
Compound: N=C(N)NCCC[C@H](NC(=O)[C@@H]1CCCN1C(=O)c1ccccc1)C(=O)c1nc2ccccc2s1

pKi [1]: 7.39
Compound: CC(=O)N[C@@H](CC(C)C)C(=O)N[C@@H](CCCN=C(N)N)C(=O)c1nc2ccccc2s1

pIC50 (Prolyl endopeptidase): 7.89
Compound: O=C(c1cscn1)[C@@H]1CCCN1C(=O)[C@@H]1CCCN1CCCc1ccccc1

pKi (Prothrombin): 5.59
Ki (Trypsin): > 400000 nM
Compound: COC(=O)n1nnnc1C(=O)[C@@H](NC(=O)[C@@H]1CC[C@H]2CN(S(=O)(=O)Cc3ccccc3)CC(=O)N21)[C@H]1CC[C@H](N)CC1

pKi [5]: 7.14
Compound: CN[C@H](Cc1ccccc1)C(=O)N1CCC[C@H]1C(=O)N[C@@H](CCCNC(=N)N)C(=O)c1ccccn1

pKi [1]: 7.64
Compound: NCCCCC(NC(=O)[C@H](Cc1ccccc1)NC(=O)[C@@H](Cc1ccccc1)NS(=O)(=O)Cc1ccccc1)C(=O)c1nc2ccccc2s1 (stereo not given in full)

pKi [1]: 6.33
Compound: CC(=O)NCC(=O)N[C@@H](CCCN=C(N)N)C(=O)c1nc2ccccc2s1

pKi (Cathepsin S): > 8.00
Compound: CC[C@H](NC(=O)[C@H](CS(=O)(=O)Cc1ccccc1)OC(=O)N1CCOCC1)C(=O)c1nc2ccccc2o1

pKi [1]: 6.42
Compound: CC(=O)N1C[C@H](O)C[C@@H]1C(=O)N[C@@H](CCCNC(=N)N)C(=O)c1nc2ccccc2s1

pKi (Prothrombin): 7.10
Ki (Trypsin): 65000 nM
Compound: Cc1nc(C(=O)[C@@H](NC(=O)[C@@H]2CC[C@H]3CN(S(=O)(=O)Cc4ccccc4)CC(=O)N32)[C@H]2CC[C@H](N)CC2)sc1C(=O)O

pIC50 [2]: 6.37
Compound: O=C(CCCCCCNc1ccc2ccccc2c1)c1ncco1

pKi [5]: 5.24
Compound: CN[C@H](Cc1ccccc1)C(=O)N1CCC[C@H]1C(=O)N[C@@H](CCCNC(=N)N)C(=O)c1nccn1C

pIC50 [2]: 7.22
Compound: O=C(CCCCCCC(=O)c1ncco1)Nc1cccc(-c2ccccc2)c1

pIC50 [2]: 7.52
Compound: COc1ccc(-c2csc(NC(=O)CCCCCCC(=O)c3ncco3)n2)cc1

pIC50 (Prolyl endopeptidase): 8.25
Compound: O=C(c1nc2ccccc2o1)[C@@H]1CCCN1C(=O)[C@@H]1CCCN1CCCc1ccccc1

pKi (Cathepsin S): > 7.00
Compound: CCC[C@H](NC(=O)[C@@H](CC(=O)N1CCOCC1)CC(C)(C)C)C(=O)c1nc2ccccc2o1

pIC50 (Prolyl endopeptidase): 5.05
Compound: CC(NC(=O)[C@H](CC(=O)N(C)C)NC(=O)[C@@H](NC(=O)CC(C)(C)C)C(C)(C)C)C(=O)c1nc2ccccc2s1 (stereo not given in full)

pIC50 [2]: 6.00
Compound: O=C(CCCCCCOc1ccc(-c2ccccc2)cc1)c1nnn[nH]1

pKi (Prothrombin): 8.35
pKi [5]: 8.27
Compound: CCOC(=O)c1csc(C(=O)[C@H](CCCNC(=N)N)NC(=O)[C@@H]2CCCN2C(=O)[C@@H](Cc2ccccc2)NC)n1

IC50 (Trypsin): 2.3 nM
pIC50 (Coagulation factor X): 6.96
Compound: CC(C)(C)CC(=O)N[C@H](Cc1ccccc1)C(=O)N1CCC[C@H]1C(=O)N[C@@H](CCCNC(=N)N)C(=O)c1nc2ccccc2o1.O=C(O)C(F)(F)F

pKi (Prothrombin): 9.15
Ki (Trypsin): 1400 nM
Compound: N[C@H]1CC[C@H]([C@H](NC(=O)[C@@H]2CC[C@H]3CN(S(=O)(=O)Cc4ccccc4)CC(=O)N32)C(=O)c2nc3ccccc3s2)CC1

pIC50 (Prolyl endopeptidase): 8.05
Compound: O=C(c1ncc[nH]1)[C@@H]1CCCN1C(=O)[C@@H]1CCCN1CCCc1ccccc1

pKi [5]: 6.54
Compound: CN[C@H](Cc1ccccc1)C(=O)N1CCC[C@H]1C(=O)N[C@@H](CCCNC(=N)N)C(=O)c1nc2ccccc2n1C

pKi (Cathepsin S): > 7.00
Compound: CCCC[C@H](NC(=O)[C@H](CS(=O)(=O)Cc1ccccc1)NC(=O)N1CCOCC1)C(=O)c1nnc(-c2ccccc2)o1

pKi [5]: 7.42
pKi [1]: 7.48
Compound: CS(=O)(=O)N1CCC[C@H]1C(=O)N[C@@H](CCCNC(=N)N)C(=O)c1nc2ccccc2s1

pKi (Cathepsin K): 6.30
pKi (Cathepsin B): 4.80
pKi (Procathepsin L): 4.85
pKi (Cathepsin S): 6.42
Compound: CCCC[C@H](NC(=O)OCC(C)C)C(=O)c1nnc(-c2ccco2)o1

Selectivity ratio [3]: 100
pKi [4]: 9.24
Compound: CCCCCCCCCCCC(=O)c1nc2ncccc2o1

pIC50 (Prothrombin): > 9.00
IC50 (Trypsin): 590 nM
Compound: N=C(N)N1CCC[C@@H](C[C@H](NC(=O)[C@@H]2CC[C@H]3CN(C(=O)CCc4ccccc4)CC(=O)N32)C(=O)c2nc3ccccc3s2)C1

IC50 (Trypsin): > 180000 nM
pIC50 (Coagulation factor X): 7.41
Compound: N=C(N)NCCC[C@@H](NS(=O)(=O)Cc1ccccc1)C(=O)NCC(=O)N[C@@H](Cc1c[nH]c2ccccc12)C(=O)c1nccs1

pIC50 [2]: 7.05
Compound: O=C(CCCCCCC(=O)c1ncco1)Nc1cc2ccccc2[nH]1

pKi (Cathepsin K): 8.02
pKi (Cathepsin B): 5.68
pKi (Procathepsin L): 7.52
Compound: CC(C)C[C@H](NC(=O)C1CCNCC1)C(=O)N[C@@H](CCc1ccccc1)C(=O)c1nc2ccccc2o1

Selectivity ratio [3]: 600
Compound: O=C(CCCCCCCCc1ccccc1)c1nnc(-c2ccccn2)o1

pIC50 [2]: < 4.30
Compound: O=C(CCCCCCOc1ccc(-c2ccccc2)cc1)c1ccccn1

pKi (Cathepsin K): 5.02
pKi (Cathepsin B): 4.60
pKi (Procathepsin L): 4.00
pKi (Cathepsin S): 4.59
Compound: CCCC[C@H](NC(=O)CCc1ccccc1)C(=O)c1nnc(-c2ccco2)o1

pIC50 (Prothrombin): 4.85
pKi [1]: 7.72
Compound: CC(=O)N1CCC[C@H]1C(=O)N[C@@H](CCCN=C(N)N)C(=O)c1nc2ccccc2s1

pIC50 [2]: < 4.30
Compound: O=C(CCCCCCOc1ccc(-c2ccccc2)cc1)c1ncc[nH]1

Compound: N[C@H]1CC[C@H]([C@H](NC(=O)[C@@H]2CC[C@H]3CN(S(=O)(=O)Cc4ccccc4)CC(=O)N32)C(=O)c2nccs2)CC1
pKi (Prothrombin): 8.49
Ki (Trypsin): 8000 nM

pIC50 (Prolyl endopeptidase): 8.30
Compound: O=C(c1nccs1)[C@@H]1CCCN1C(=O)[C@@H]1CCCN1CCCc1ccccc1
